From ChEMBL document CHEMBL1201862, “PubChem BioAssay data set” (2004)
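Growth conditions: 96-well plates. Treatment: test compound, 48 hours, 5 concentrations. Analysis: linear interpolation between bracketing concentrations; unreached endpoints set to highest concentration. The concentration for 50% growth inhibition is given as GI50.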 Activity calls are given as the source filed them. Rule as the data show it: active = GI50 up to about 1.1 µM and inactive = higher.

What was measured:
Assay in all cases: NCI tumour cell line growth inhibition, 48 h
SK-MEL-5 = tested on: SK-MEL-5
HT-29 = tested on: HT-29
SNB-19 = tested on: SNB-19
HCC 2998 = tested on: HCC 2998
OVCAR-4 = tested on: OVCAR-4
M14 = tested on: M14
NCI-H23 = tested on: NCI-H23
COLO 205 = tested on: COLO 205
MDA-MB-435 = tested on: MDA-MB-435
HCT-15 = tested on: HCT-15
TK-10 = tested on: TK-10
HOP-62 = tested on: HOP-62
UACC-257 = tested on: UACC-257
786-0 = tested on: 786-0
SK-OV-3 = tested on: SK-OV-3
SF-295 = tested on: SF-295
SF-268 = tested on: SF-268
SF-539 = tested on: SF-539
CAKI-1 = tested on: CAKI-1
MCF7 = tested on: MCF7

SMILES	GI50 (SK-MEL-5)	GI50 (HT-29)	GI50 (SNB-19)	GI50 (HCC 2998)	GI50 (OVCAR-4)	GI50 (M14)	GI50 (NCI-H23)	GI50 (COLO 205)	GI50 (MDA-MB-435)	GI50 (HCT-15) [µM]	GI50 (TK-10)	GI50 (HOP-62)	GI50 (UACC-257)	GI50 (786-0)	GI50 (SK-OV-3)	GI50 (SF-295)	GI50 (SF-268)	GI50 (SF-539)	GI50 (CAKI-1)	GI50 (MCF7)
CC(C)=CC(=O)OC1C2C(C)=CC(=O)C(O)C2(C)C2C3(O)OCC24C(CC(=O)OC14)C(C)C3O (stereo not drawn)	0.00308 µM (active)	0.0104 µM (active)	0.00349 µM (active)	0.0128 µM (active)	0.0135 µM (active)	0.0023 µM (active)	0.00655 µM (active)	0.0975 µM (active)	0.003 µM (active)	0.0426	0.0216 µM (active)	0.00942 µM (active)	0.0113 µM (active)	0.01 µM (active)	0.213 µM (active)	0.0277 µM (active)	0.029 µM (active)	0.00505 µM (active)		
N#Cc1ccc(Oc2nc3ccccc3nc2-c2ccccc2)cc1	> 100 µM (inactive)	> 100 µM (inactive)	> 100 µM (inactive)	> 100 µM (inactive)	> 100 µM (inactive)		> 100 µM (inactive)	> 100 µM (inactive)	> 100 µM (inactive)	> 100	> 100 µM (inactive)	> 100 µM (inactive)	> 100 µM (inactive)	> 100 µM (inactive)	> 100 µM (inactive)	> 100 µM (inactive)	> 100 µM (inactive)		> 100 µM (inactive)	> 100 µM (inactive)
Cc1cc(CN2CCCCC2)c(O)c(CN2CCCCC2)c1	> 100 µM (inactive)	> 100 µM (inactive)	> 100 µM (inactive)	> 100 µM (inactive)	> 100 µM (inactive)	> 100 µM (inactive)	> 100 µM (inactive)	> 100 µM (inactive)	> 100 µM (inactive)	> 100	> 100 µM (inactive)	> 100 µM (inactive)	> 100 µM (inactive)	> 100 µM (inactive)	> 100 µM (inactive)	> 100 µM (inactive)	> 100 µM (inactive)		> 100 µM (inactive)	> 100 µM (inactive)
CCOCc1nc2c(OC)c(-c3nc4ccc(N5CCN(C)CC5)cc4[nH]3)cc(OC)c2[nH]1	17.5 µM (inactive)	27.8 µM (inactive)	44.4 µM (inactive)		71.8 µM (inactive)	20.2 µM (inactive)	37.8 µM (inactive)	18.9 µM (inactive)	20.6 µM (inactive)	44.2	53.3 µM (inactive)	25.6 µM (inactive)	19 µM (inactive)	31 µM (inactive)	71.4 µM (inactive)	21 µM (inactive)	63.4 µM (inactive)	19.3 µM (inactive)	27.6 µM (inactive)	47.6 µM (inactive)
COC(=O)N1C[C@@]2(C=CC3(CC2)OCCO3)c2ccccc21	81.7 µM (inactive)	28.2 µM (inactive)	> 100 µM (inactive)	> 100 µM (inactive)	> 100 µM (inactive)	> 100 µM (inactive)	95.7 µM (inactive)	> 100 µM (inactive)	23.7 µM (inactive)	57.3	> 100 µM (inactive)	> 100 µM (inactive)	71.3 µM (inactive)	> 100 µM (inactive)	> 100 µM (inactive)	> 100 µM (inactive)			> 100 µM (inactive)	96.4 µM (inactive)
CCOC(=O)C(=O)N/N=C1\C(=O)Nc2ccccc21	> 100 µM (inactive)		> 100 µM (inactive)	> 100 µM (inactive)	> 100 µM (inactive)	> 100 µM (inactive)	> 100 µM (inactive)	> 100 µM (inactive)	> 100 µM (inactive)	> 100	> 100 µM (inactive)	> 100 µM (inactive)	> 100 µM (inactive)	> 100 µM (inactive)	> 100 µM (inactive)	> 100 µM (inactive)	> 100 µM (inactive)		> 100 µM (inactive)	> 100 µM (inactive)
C[C@]12CCC(N3CCCC3)CC1=CC[C@@H]1[C@@H]2CC[C@]2(C)C(O)[C@H](n3ccnc3)C[C@@H]12 (stereo partly drawn)	53 µM (inactive)	5.85 µM (inactive)	> 100 µM (inactive)		73.6 µM (inactive)	15.7 µM (inactive)	53.6 µM (inactive)	30.3 µM (inactive)	36.6 µM (inactive)	20.9	> 100 µM (inactive)		38.6 µM (inactive)	41.6 µM (inactive)		35.2 µM (inactive)	> 10 µM (inactive)	19 µM (inactive)	> 100 µM (inactive)	45 µM (inactive)
S=C(NC/C(Br)=C/Br)Nc1cccc2ccccc12	16.4 µM (inactive)	34.5 µM (inactive)	34 µM (inactive)		30.3 µM (inactive)	16.8 µM (inactive)	23.5 µM (inactive)	18.5 µM (inactive)	34 µM (inactive)	31.3	40.6 µM (inactive)	30.3 µM (inactive)	22.5 µM (inactive)	38.8 µM (inactive)	37.5 µM (inactive)	33.3 µM (inactive)		25.5 µM (inactive)	29.2 µM (inactive)	20 µM (inactive)
COC(=O)Nc1nc2cc(S(=O)(=O)Nc3ccccn3)ccc2[nH]1	42.1 µM (inactive)	43.1 µM (inactive)	64.4 µM (inactive)		54.1 µM (inactive)	78.9 µM (inactive)	50.1 µM (inactive)	32.7 µM (inactive)	14.1 µM (inactive)	19.8	33.3 µM (inactive)	73.3 µM (inactive)	17.7 µM (inactive)	49.8 µM (inactive)	44.5 µM (inactive)	49.7 µM (inactive)	72.6 µM (inactive)	22.7 µM (inactive)	47 µM (inactive)	28.6 µM (inactive)
COc1cc(S(=O)(=O)Nc2nc(-c3ccc(N4C(=O)/C(=C/c5ccccc5[N+](=O)[O-])N=C4c4ccccc4)cc3)cs2)ccc1Cl	48.9 µM (inactive)	> 100 µM (inactive)	89.9 µM (inactive)		> 100 µM (inactive)	> 100 µM (inactive)	29.9 µM (inactive)	> 100 µM (inactive)	67.1 µM (inactive)	> 100	> 100 µM (inactive)	87.1 µM (inactive)	> 100 µM (inactive)	> 100 µM (inactive)	95.7 µM (inactive)	> 100 µM (inactive)	22.6 µM (inactive)	> 100 µM (inactive)	> 100 µM (inactive)	34.6 µM (inactive)
CC1=NN(c2ccc(S(=O)(=O)O)cc2)C2(C1)C(Cl)C(=O)N2c1nc2ccccc2s1 (stereo not drawn)	> 100 µM (inactive)	> 100 µM (inactive)	> 100 µM (inactive)	> 100 µM (inactive)	> 100 µM (inactive)	> 100 µM (inactive)	> 100 µM (inactive)	> 100 µM (inactive)	> 100 µM (inactive)	> 100	> 100 µM (inactive)	91.2 µM (inactive)	> 100 µM (inactive)	> 100 µM (inactive)	> 100 µM (inactive)	> 100 µM (inactive)	> 100 µM (inactive)		> 100 µM (inactive)	> 100 µM (inactive)
O=C(OCc1ccccc1)N1CCNCCNCCN(C(=O)OCc2ccccc2)CCNCC1	14.1 µM (inactive)	12.1 µM (inactive)	68.5 µM (inactive)		41 µM (inactive)	16.6 µM (inactive)		13.6 µM (inactive)	16.1 µM (inactive)	18.7	24.8 µM (inactive)	36.7 µM (inactive)	16.5 µM (inactive)	14.3 µM (inactive)	> 100 µM (inactive)	16.4 µM (inactive)		18.5 µM (inactive)	20 µM (inactive)	17.8 µM (inactive)
OC1CCCN(C2(c3cccs3)CCCCC2)C1 (stereo not drawn)	> 100 µM (inactive)	> 100 µM (inactive)		> 100 µM (inactive)	> 100 µM (inactive)		> 100 µM (inactive)	> 100 µM (inactive)	> 100 µM (inactive)	> 100	> 100 µM (inactive)	> 100 µM (inactive)	> 100 µM (inactive)	> 100 µM (inactive)	> 100 µM (inactive)	> 100 µM (inactive)	> 100 µM (inactive)		> 100 µM (inactive)	> 100 µM (inactive)
COc1cc([N+](=O)[O-])c(S(=O)(=O)O)cc1NS(=O)(=O)c1ccc(C)cc1	> 100 µM (inactive)	> 100 µM (inactive)	> 100 µM (inactive)		> 100 µM (inactive)	> 100 µM (inactive)	> 100 µM (inactive)	> 100 µM (inactive)	> 100 µM (inactive)	> 100	> 100 µM (inactive)	> 100 µM (inactive)	> 100 µM (inactive)	> 100 µM (inactive)	> 100 µM (inactive)	> 100 µM (inactive)	> 100 µM (inactive)	> 100 µM (inactive)	> 100 µM (inactive)	> 100 µM (inactive)
N=C1NC(=O)N2CC12 (stereo not drawn) [IMEXON]	> 100 µM (inactive)	> 100 µM (inactive)	> 100 µM (inactive)	> 100 µM (inactive)	> 100 µM (inactive)	> 100 µM (inactive)	> 100 µM (inactive)	> 100 µM (inactive)		> 100	> 100 µM (inactive)	> 100 µM (inactive)	> 100 µM (inactive)	> 100 µM (inactive)	> 100 µM (inactive)	> 100 µM (inactive)	> 100 µM (inactive)	> 100 µM (inactive)	> 100 µM (inactive)	
